Source: patent publication EP4752152A1, “STEROID COMPOUND, AND PREPARATION METHOD THEREFOR AND USE THEREOF” (Cholesgen (Shanghai) Co.Ltd., priority 2023, dated 2025)
Values after ≈ are worked out from the molar mass of the structure shown. Like-named read-outs stand apart in the source and are kept apart here.

Columns and labels:
[1] = Solubility in fasted-state simulated intestinal fluid (FaSSIF); type: physicochemical; conditions: FaSSIF, pH 6.5, fassif, kinetic from dmso stock, FaSSIF pH 6.5, 300 µM sample solution, room temperature
Outline: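 Compound from 10.0 mM DMSO stock added to FaSSIF (phosphate/NaCl buffer, pH 6.5) at 300 µM nominal, shaken 1 h at room temperature, 1000 rpm. After centrifugation, supernatant concentration quantified by LC-MS/MS.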

[2] = Metabolic stability experiment of mouse liver microsomes; type: in vitro ADME
[3] = test system: Fatty Acid Synthase (FASN) gene; assay: Inhibition of FASN gene expression (qPCR) in Huh-7 cells; type: cell-based, human; conditions: Homo sapiens, Huh-7, 16 h, Huh-7 cells, starvation medium, 16 hours, qPCR, read-out: FASN IC50
Outline: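 Huh-7 cells switched to starvation DMEM (5% LPDS, 2 µM lovastatin, 10 µM mevalonate) and treated 16 h with compound, top 3000 nM, 3-fold dilutions, 5 concentrations. FASN mRNA by RT-qPCR; inhibition relative to DMSO, IC50 from four-parameter fit.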

SREBP pathway = assay: SREBP luciferase reporter gene system (SRE-luciferase assay); type: cell-based, human; conditions: Homo sapiens, Huh-7, 16 h, Huh-7/SRE-luc cells, sterol-deficient medium, 0.01-10 µM
Outline: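 Huh-7 cells stably carrying LDLR promoter-luciferase plus GFP were treated 16 h in sterol-deficient medium (5% lipoprotein-deficient serum, 2 µM lovastatin, 10 µM mevalonic acid) at 0.01–10 µM. Luciferase/GFP ratio measured as pathway activity; inhibition versus DMSO fitted to a four-parameter model for IC50.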

| Structure (SMILES) | solubility at 1 h [1] [µM] | half-life at 1 µM [2] [min] | IC50 ([3]; class symbols) [nM] | IC50 (SREBP pathway) [µM] | IC50 ([3]; numeric value) [nM] |
| --- | --- | --- | --- | --- | --- |
| COc1cc(F)ccc1C(O)CCC[C@@H](C)[C@H]1CC[C@H]2[C@H]3[C@H](CC[C@]12C)[C@@]1(C)CC[C@H](O)[C@H](O)[C@@H]1CC3(F)F (stereo partly drawn) [Compound 35, (1R,3aS,3bS,5aR,6R,7S,9aR,9bS,11aR)-4,4-difluoro-1-[(2R)-6-(4-fluoro-2-methoxyphenyl)-6-hydroxyhexan-2-yl]-9a,11a-dimethylhexadecahydro-1H-cyclopenta[1,2-a]phenanthrene-6,7-diol] | 160 (≈ 88.4 µg/mL) | > 186 | 200 to 500 | 0.051 |  |
| C[C@H](CCCC(C)(C)O)[C@H]1CC[C@@]2(C)C3=C(CC[C@]12C)[C@@]1(C)CC[C@H](O)C(C)(C)[C@@H]1CC3 [Comparative compound 1, reference compound] | 105 (≈ 46.7 µg/mL) | 7.85 |  | 0.293 | 959 |
